This is an account of results in US20260226011A1, “COMPOSITIONS AND METHODS FOR TREATING OCULAR DISEASES OR DISORDERS” (Translatum Medicus Inc., priority 2023, published 2026).

The structures appear in SMILES notation.

Data set [1] can be described thus: Acid hydrolysis of bindarit conjugates in 12M HCl, read by NMR. The data set is classed as physicochemical. Particulars: for hydrolysis in 12M HCl: 12M HCl at 40° C., overnight; for conjugate hydrolized (acid hydrolysis): 12M HCl, 40° C., stirred 16 hours, NMR in D2O. Here is the method:
Acid hydrolysis: 4 mg bindarit-taurine conjugate was added to 4 mL 12M HCl. The reaction mixture was heated to 40° C. and stirred for 16 hours, followed by concentration of the reaction mixture. About 70% (mol %) of the bindarit-taurine conjugate was hydrolized as identified by NMR in D2O (FIG. 10).
3 mg bindarit-carnosine conjugate was added to 3 mL 12M HCl. The reaction mixture was heated to 40° C. and stirred for 16 hours, followed by concentration of the reaction mixture. About 50% (mol %) of the bindarit-carnosine conjugate was hydrolized as identified by NMR in D2O (FIG. 12).

Data set [2] concerns monocyte chemoattractant protein-1 (MCP-1). The data set can be described thus: MCP-1 (ccl2) mRNA expression (qPCR) after LPS stimulation of PMA-differentiated THP-1 macrophages. The format is cell-based, Human. Particulars: 150 μM compound, LPS 100 ng/ml for 1 hour, qPCR delta delta Ct (FIG. 1). On the procedure:
Human THP-1 monocytes were seeded at 5×10^5-9×10^5 in a 6-well plate. Phorbol myristate acetate (5 ng/ml, PMA) was added for 48-72 hours, to induce differentiation from monocytes to macrophages. Cells were then starved for 3 hours.
Cells were harvested in RNALater (Qiagen), and prepared for quantitative polymerase chain reaction (qPCR). Total RNA was isolated using Trizol Reagent (Life Technologies) based on the manufacturer's protocol and its quantity and quality checked with a Nanodrop 2000 spectrophotometer (Thermo Scientific, USA). QuantiTect Reverse Transcription Kit with separate genomic DNA removal step (Qiagen) was used based on the manufacturer's protocol. Briefly, 0.5 μg total RNA was used for each sample during reverse transcription and the resulting cDNA solution was further diluted to 10 ng/ul with nuclease free water and stored at-20 C.
PowerUp SYBR Green Master Mix (ThermoFisher Scientific) was used for quantitative PCR based on manufacturer's protocol. […]
Relative quantification method based on delta delta Ct was used for comparison of gene expression levels in various arms. Briefly, relative quantification and statistical analysis were performed using Relative Expression Software Tool-Multiple Condition Solver (REST-MCS, V2) based on the protocol by M. W. Pfaffl & G. W. Horgan (2006), which is incorporated by reference herein in its entirety.
For orientation: Real-time PCR tracks product formation cycle by cycle.

Turning to `CC(C)(OCc1nn(Cc2ccccc2)c2ccccc12)C(=O)NCCC(=O)N[C@@H](Cc1cnc[nH]1)C(=O)O` [bindarit-carnosine conjugate], in data set [1], the “hydrolysis in 12M HCl” value came out at 50% and the “conjugate hydrolized (acid hydrolysis)” value is listed as “About 50 % (mol %)”.

Turning to `CCOC(=O)C(C)(C)OCc1nn(Cc2ccccc2)c2ccccc12` [bindarit ethyl ester, ethyl 2-((1-benzl-1H-indazol-3-yl)methoxy)-2-methylpropanoate], the “ability to reduce MCP-1 mRNA” value in data set [2] is on record as “equally as efficacious as bindarit”.

Regarding `CC(C)(OCc1nn(Cc2ccccc2)c2ccccc12)C(=O)NCCS(=O)(=O)O` [bindarit-taurine conjugate], in data set [1], the “hydrolysis in 12M HCl” value turned out to be 70% and the “conjugate hydrolized (acid hydrolysis)” value is reported as “About 70 % (mol %)”.
